Test results reported in patent publication US11377425B1, “Small molecule modulators of IL-17” (LEO Pharma A/S, priority 2018, dated 2022).

Target: T1, human IL-17AA (Homo sapiens, UniProt Q16552)
T1 construct: host or cells: HEK (human embryonic kidney) cells
T1 sequence (Q16552 24-155): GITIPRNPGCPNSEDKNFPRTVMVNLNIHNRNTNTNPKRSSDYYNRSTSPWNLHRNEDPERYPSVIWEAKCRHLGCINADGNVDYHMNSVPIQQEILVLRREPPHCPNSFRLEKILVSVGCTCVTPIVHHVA
Assay: IL-8 release assay in human epithelial keratinocytes adult (HEKa)
Assay type: cell-based
Conditions: HEKa cells, 3 ng/mL HEK-human IL-17AA + 10 ng/mL human TNFalpha; read-out: Rel EC50 IL-8 release assay
Procedure, shortened: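 Adult human epidermal keratinocytes stimulated 68-72 h at 37 °C with 3 ng/mL HEK-derived human IL-17AA plus 10 ng/mL TNF-alpha (final) in the presence of compound; TNF-alpha alone defines 100% inhibition. Secreted IL-8 measured by HTRF as percent of controls; relative IC50/Emax from four-parameter fit (r^2>0.9), cytotoxicity by PrestoBlue.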

| Structure (SMILES) | EC50 |
| --- | --- |
| Cc1n[nH]cc1-c1ccc(NC(=O)[C@@H](NC(=O)c2ccnn2C)C(c2ccccc2)c2ccccc2)cc1O [Example 421, N-[(1S)-1-Benzhydryl-2-[3-hydroxy-4-(3-methyl-1H-pyrazol-4-yl)anilino]-2-oxo-ethyl]-2-methyl-pyrazole-3-carboxamide] | 100 to 1000 nM |
| Cn1cncc1-c1ccc(NC(=O)[C@@H](NC(=O)OC2CC2)C2CCCCC2)cc1O [Example 422, Cyclopropyl N-[(1S)-1-cyclohexyl-2-[3-hydroxy-4-(3-methylimidazol-4-yl)anilino]-2-oxo-ethyl]carbamate] | > 1000 nM |
| Cc1ncn(C)c1-c1ccc(NC(=O)[C@@H](NC(=O)OC2CC2)C(c2ccccc2)c2ccccc2)cc1 [Example 423, Cyclopropyl N-[(1S)-1-benzhydryl-2-[4-(3,5-dimethylimidazol-4-yl)anilino]-2-oxo-ethyl]carbamate] | 100 to 1000 nM |
| Cc1n[nH]c(C)c1-c1ccc(NC(=O)[C@@H](NC(=O)OC2CC2)C2CCCCC2)cc1O [Example 424, cyclopropyl N-[(1S)-1-cyclohexyl-2-[4-(3,5-dimethyl-1H-pyrazol-4-yl)-3-hydroxy-anilino]-2-oxo-ethyl]carbamate] | 100 to 1000 nM |
| Cc1n[nH]c(C)c1-c1ccc(NC(=O)[C@@H](NC(=O)OC2CC2)C2CCCCCC2)cc1O [Example 425, cyclopropyl N-[(1S)-1-cycloheptyl-2-[4-(3,5-dimethyl-1H-pyrazol-4-yl)-3-hydroxy-anilino]-2-oxo-ethyl]carbamate] | 100 to 1000 nM |
| Cc1n[nH]c(C)c1-c1ccc(NC(=O)[C@@H](NC(=O)OC2CC2)C(c2ccccc2)c2ccccc2)cc1 [Example 426, cyclopropyl N-[(1S)-1-benzhydryl-2-[4-(3,5-dimethyl-1H-pyrazol-4-yl)anilino]-2-oxo-ethyl]carbamate] | 100 to 1000 nM |
| Cc1n[nH]c(C)c1-c1ccc(NC(=O)[C@@H](NC(=O)OC2CC2)C2CCCCCC2)cc1 [Example 427, cyclopropyl N-[(1S)-1-cycloheptyl-2-[4-(3,5-dimethyl-1H-pyrazol-4-yl)anilino]-2-oxo-ethyl]carbamate] | < 100 nM |
| Cc1n[nH]c(C)c1-c1ccc(NC(=O)[C@@H](NC(=O)OC2CCC2)C(C2CC2)C2CC2)cc1 [Example 428, Cyclobutyl N-[(1S)-1-(dicyclopropylmethyl)-2-[4-(3,5-dimethyl-1H-pyrazol-4-yl)anilino]-2-oxo-ethyl]carbamate] | < 100 nM |
| Cc1n[nH]c(C)c1-c1ccc(NC(=O)[C@@H](NC(=O)OCc2ccccc2)C2CCCCC2)cc1 [Example 429, benzyl N-[(1S)-1-cyclohexyl-2-[4-(3,5-dimethyl-1H-pyrazol-4-yl)anilino]-2-oxo-ethyl]carbamate] | 100 to 1000 nM |
| Cc1n[nH]c(C)c1-c1ccc(NC(=O)[C@@H](NC(=O)OCc2cccnc2)C2CCCCC2)cc1 [Example 430, 3-pyridylmethyl N-[(1S)-1-cyclohexyl-2-[4-(3,5-dimethyl-1H-pyrazol-4-yl)anilino]-2-oxo-ethyl]carbamate] | 100 to 1000 nM |
| Cc1n[nH]c(C)c1-c1ccc(NC(=O)[C@@H](NC(=O)OCc2ccccn2)C2CCCCC2)cc1 [Example 431, 2-pyridylmethyl N-[(1S)-1-cyclohexyl-2-[4-(3,5-dimethyl-1H-pyrazol-4-yl)anilino]-2-oxo-ethyl]carbamate] | 100 to 1000 nM |
| Cc1n[nH]c(CO)c1-c1ccc(NC(=O)[C@@H](NC(=O)c2ccnn2C(C)C)C(C2CC2)C2CC2)cc1 [Example 432, N-[(1S)-1-(Dicyclopropylmethyl)-2-[4-[5-(hydroxymethyl)-3-methyl-1H-pyrazol-4-yl]anilino]-2-oxo-ethyl]-2-isopropyl-pyrazole-3-carboxamide] | < 100 nM |
| Cc1n[nH]c(C(C)O)c1-c1ccc(NC(=O)[C@@H](NC(=O)OC(C)(C)C)C2CCCCC2)cc1 (stereo partly drawn) [Example 433, Tert-butyl N-[(1S)-1-cyclohexyl-2-[4-[5-(1-hydroxyethyl)-3-methyl-1H-pyrazol-4-yl]anilino]-2-oxo-ethyl]carbamate] | > 1000 nM |
| Cc1[nH]nc(C(C)O)c1-c1ccc(NC(=O)[C@@H](NC(=O)OC(C)(C)C)C(c2ccccc2)c2ccccc2)cc1 (stereo partly drawn) [Example 434, tert-butyl N-[(1S)-1-benzhydryl-2-[4-[5-(1-hydroxyethyl)-3-methyl-1H-pyrazol-4-yl]anilino]-2-oxo-ethyl]carbamate] | 100 to 1000 nM |
| Cc1n[nH]c(C(C)(C)O)c1-c1ccc(NC(=O)[C@@H](NC(=O)c2ccnn2C)C(c2ccccc2)c2ccccc2)cc1 [Example 435, N-[(1S)-1-benzhydryl-2-[4-[5-(1-hydroxy-1-methyl-ethyl)-3-methyl-1H-pyrazol-4-yl]anilino]-2-oxo-ethyl]-2-methyl-pyrazole-3-carboxamide] | 100 to 1000 nM |

Further lines, results first:

| EC50 | Structure (SMILES) |
| --- | --- |
| > 1000 nM | Cc1[nH]nc(C(C)(C)O)c1-c1ccc(NC(=O)[C@@H](NC(=O)OC(C)(C)C)C2CCCCC2)cc1 [Example 436, tert-butyl N-[(1S)-1-cyclohexyl-2-[4-[5-(1-hydroxy-1-methyl-ethyl)-3-methyl-1H-pyrazol-4-yl]anilino]-2-oxo-ethyl]carbamate] |
| 100 to 1000 nM | Cc1[nH]nc(CO)c1-c1ccc(NC(=O)[C@@H](NC(=O)OC(C)(C)C)C(c2ccccc2)c2ccccc2)cc1 [Example 437, tert-butyl N-[(1S)-1-benzhydryl-2-[4-[5-(hydroxymethyl)-3-methyl-1H-pyrazol-4-yl]anilino]-2-oxo-ethyl]carbamate] |
| 100 to 1000 nM | Cc1[nH]nc(CO)c1-c1ccc(NC(=O)[C@@H](NC(=O)OC(C)(C)C)C2CCCCC2)cc1 [Example 438, tert-butyl N-[(1S)-1-cyclohexyl-2-[4-[5-(hydroxymethyl)-3-methyl-1H-pyrazol-4-yl]anilino]-2-oxo-ethyl]carbamate] |
| 100 to 1000 nM | Cc1[nH]nc(CO)c1-c1ccc(NC(=O)[C@@H](NC(=O)OC(C)(C)C)C2CCCCCC2)cc1 [Example 439, tert-butyl N-[(1S)-1-cycloheptyl-2-[4-[5-(hydroxymethyl)-3-methyl-1H-pyrazol-4-yl]anilino]-2-oxo-ethyl]carbamate] |
| 100 to 1000 nM | Cc1n[nH]c(C(C)O)c1-c1ccc(NC(=O)[C@@H](NC(=O)c2ccnn2C)C2CCCCC2)cc1 (stereo partly drawn) [Example 440, N-[(1S)-1-Cyclohexyl-2-[4-[5-(1-hydroxyethyl)-3-methyl-1H-pyrazol-4-yl]anilino]-2-oxo-ethyl]-2-methyl-pyrazole-3-carboxamide] |
| > 1000 nM | Cc1n[nH]c(C(C)O)c1-c1ccc(NC(=O)[C@@H](NC(=O)C2(F)CC2)C2CCCCC2)cc1 (stereo partly drawn) [Example 441, N-[(1S)-1-cyclohexyl-2-[4-[5-(1-hydroxyethyl)-3-methyl-1H-pyrazol-4-yl]anilino]-2-oxo-ethyl]-1-fluoro-cyclopropanecarboxamide] |
| 100 to 1000 nM | Cc1n[nH]c(C(C)O)c1-c1ccc(NC(=O)[C@@H](NC(=O)C2(F)CC2)C(c2ccccc2)c2ccccc2)cc1 (stereo partly drawn) [Example 442, N-[(1S)-1-benzhydryl-2-[4-[5-(1-hydroxyethyl)-3-methyl-1H-pyrazol-4-yl]anilino]-2-oxo-ethyl]-1-fluoro-cyclopropanecarboxamide] |
| 100 to 1000 nM | Cc1n[nH]c(C(C)O)c1-c1ccc(NC(=O)[C@@H](NC(=O)c2ccnn2C)C(c2ccccc2)c2ccccc2)cc1 (stereo partly drawn) [Example 443, N-[(1S)-1-benzhydryl-2-[4-[5-(1-hydroxyethyl)-3-methyl-1H-pyrazol-4-yl]anilino]-2-oxo-ethyl]-2-methyl-pyrazole-3-carboxamide] |
| 100 to 1000 nM | Cc1n[nH]c(CO)c1-c1ccc(NC(=O)[C@@H](NC(=O)c2ccnn2C)C2CCCCC2)cc1 [Example 445, N-[(1S)-1-cyclohexyl-2-[4-[5-(hydroxymethyl)-3-methyl-1H-pyrazol-4-yl]anilino]-2-oxo-ethyl]-2-methyl-pyrazole-3-carboxamide] |
| < 100 nM | Cc1n[nH]c(CO)c1-c1ccc(NC(=O)[C@@H](NC(=O)c2ccnn2C)C2CCCCCC2)cc1 [Example 446, N-[(1S)-1-cycloheptyl-2-[4-[5-(hydroxymethyl)-3-methyl-1H-pyrazol-4-yl]anilino]-2-oxo-ethyl]-2-methyl-pyrazole-3-carboxamide] |
| 100 to 1000 nM | Cc1n[nH]c(CO)c1-c1ccc(NC(=O)[C@@H](NC(=O)c2ccnn2C)C(c2ccccc2)c2ccccc2)cc1 [Example 447, N-[(1S)-1-benzhydryl-2-[4-[5-(hydroxymethyl)-3-methyl-1H-pyrazol-4-yl]anilino]-2-oxo-ethyl]-2-methyl-pyrazole-3-carboxamide] |
| 100 to 1000 nM | CC(C)n1nccc1C(=O)N[C@H](C(=O)Nc1ccc(-c2c(C(C)(C)O)ncn2C)cc1)C(C1CC1)C1CC1 [Example 448, N-[(1S)-1-(Dicyclopropylmethyl)-2-[4-[5-(1-hydroxy-1-methyl-ethyl)-3-methyl-imidazol-4-yl]anilino]-2-oxo-ethyl]-2-isopropyl-pyrazole-3-carboxamide] |
| 100 to 1000 nM | Cc1n[nH]c(N)c1-c1ccc(NC(=O)[C@@H](NC(=O)c2ccnn2C)C2CCCCC2)cc1 [Example 449, N-[(1S)-2-[4-(3-Amino-5-methyl-1H-pyrazol-4-yl)anilino]-1-cyclohexyl-2-oxo-ethyl]-2-methyl-pyrazole-3-carboxamide] |
| 100 to 1000 nM | Cc1n[nH]c(N)c1-c1ccc(NC(=O)[C@@H](NC(=O)c2ccnn2C)C2CCCCCC2)cc1 [Example 450, N-[(1S)-2-[4-(5-amino-3-methyl-1H-pyrazol-4-yl)anilino]-1-cycloheptyl-2-oxo-ethyl]-2-methyl-pyrazole-3-carboxamide] |
| < 100 nM | Cc1n[nH]c(N)c1-c1ccc(NC(=O)[C@@H](NC(=O)c2ccnn2C)C(C2CCC2)C2CCC2)cc1 [Example 451, N-[(1S)-1-[[4-(3-amino-5-methyl-1H-pyrazol-4-yl)phenyl]carbamoyl]-2,2-di(cyclobutyl)ethyl]-2-methyl-pyrazole-3-carboxamide] |
